Laboratory results published in patent publication US20050137223A1, “Glucoimidazole and polyhydroxycyclohexenyl amine derivatives to treat gaucher disease” (Amicus Therapeutics, Inc., priority 2003, published 2005).
Changes are numbered by the printed parent chain. Read-outs that look alike come from different tables or passages of the source.

Key:
GCase [1] = target: T1, GCase (Homo sapiens, UniProt P04062); experiment: Inhibitory activity against GCase (4-methylumbelliferyl β-glucoside substrate); assay type: biochemical; settings: for IC50: human GCase, 3 mM 4-MU β-glucoside, pH 5.2, 37° C., 30 min; for increase of inhibitory potency relative to 2-PE-GIZ: phenylethyl group replaced with octyl or dimethylbutyl at the same position
T1 sequence (P04062 40-536): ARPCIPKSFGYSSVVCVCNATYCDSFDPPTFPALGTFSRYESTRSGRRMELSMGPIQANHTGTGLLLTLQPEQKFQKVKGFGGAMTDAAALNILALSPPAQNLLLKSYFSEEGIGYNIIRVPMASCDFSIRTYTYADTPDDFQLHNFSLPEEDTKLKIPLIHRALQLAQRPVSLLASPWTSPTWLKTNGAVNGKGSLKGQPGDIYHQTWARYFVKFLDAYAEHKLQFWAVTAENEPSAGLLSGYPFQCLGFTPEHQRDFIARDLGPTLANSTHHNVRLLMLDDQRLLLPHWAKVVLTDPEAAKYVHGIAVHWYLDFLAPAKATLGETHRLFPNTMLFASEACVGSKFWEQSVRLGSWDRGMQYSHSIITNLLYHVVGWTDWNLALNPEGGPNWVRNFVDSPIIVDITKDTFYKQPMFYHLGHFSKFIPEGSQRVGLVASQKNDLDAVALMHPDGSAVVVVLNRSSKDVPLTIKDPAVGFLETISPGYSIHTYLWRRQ
Description: Methods. […] The compounds were added to each reaction mixture individually at the final concentration indicated. After incubation with the diluted human GCase at 37° C. for 30 min, the reaction was stopped by addition of 0.2 M glycine buffer, pH 10.8, the released 4-methylumbelliferone was determined by a fluoremeter at excitation wavelength of 355 nm and emission wavelength at 460 nm, respectively. The relative enzyme activity was calculated as a percentage to those of reactions without inhibitors. IC50 was calculated using Prism sigmoid plot.

GCase [2] = target: T1, GCase; settings: literature values (Ogawa et al.); read-out: IC50 against GCase; cited from earlier work
[3] = target: T2, GCase in fibroblasts from Gaucher patients with N370S/N370S mutation (Homo sapiens, UniProt P04062, N409S); experiment: Chaperone activity for GCase in Gaucher patient fibroblasts (residual enzyme activity); assay type: cell-based; settings: cultured with compound for 4 days
T2 construct: endogenous in cells; host or cells: fibroblasts from Gaucher patients homozygous for N370S
T2 sequence (P04062 40-536 N409S): T1 sequence (P04062 40-536) with N370S
Description: Methods. Fibroblasts established from Gaucher patients with N370S/N370S mutation were cultured in DMEM medium supplemented with 10% fetal bovine serum and antibiotics at 37° C. under 5% CO2. The GIZ was added into the culture medium at the final concentrations for 4 days prior to the assay. After washing the cells with phosphate-buffered saline, the cells were harvested and homogenized in the presence of 0.25% (w/v) sodium taurocholate and 0.1% (v/v) Triton X-100 in McIlvaine buffer (pH 5.2, Reaction Buffer), and 10 μl of the lysate was used for the determination of residual enzyme activity. The activity of the GCase was determined with 3 mM 4-MU-β-Glc in the Reaction Buffer at 37° C. for 1 hr as conduritol B epoxide (CBE)-sensitive activity in parallel assays without or with pre-incubation with CBE at 1.25 mM for 30 min at room temperature. Protein concentrations in the cell lysates were determined using micro BCA protein assay kit from Pierce.

[4] = shortly after the start of the treatment; cited from earlier work

Compound	IC50 (GCase [1])	increase of inhibitory potency relative to 2-PE-GIZ (GCase [1])	further results
CCCCCCCCN[C@@H]1C=C(CO)[C@@H](O)[C@H](O)[C@H]1O [N-octyl valienamine]	–	–	IC50 (GCase [2]): ~300 nM
OC[C@@H]1[C@@H](O)[C@H](O)[C@@H](O)c2nccn21 [GIZ, (5R,6R,7S,8S)-5-hydroxymethyl-5,6,7,8-tetrahydroimidazo[1,2-a]pyridine-6,7,8-triol]	87 nM	–	increase of residual enzyme activity in patient cells [3]: approximately 2 fold; optimal concentration for the maximum enhancement [3]: ~300 µM
CCCCN1C[C@H](O)[C@@H](O)[C@H](O)[C@H]1CO [N-butyl 1-deoxynojirimycin (NB-DNJ), N-butyl 1-deoxynojirimycin]	–	–	patients with diarrhea (most frequent adverse effect) [4]: 79%

Continued, in another order:

IC50 (GCase [1])	increase of inhibitory potency relative to 2-PE-GIZ (GCase [1])	Compound	further results
0.03 nM	~37 fold	CC(C)(C)CCc1cn2c(n1)[C@H](O)[C@@H](O)[C@H](O)[C@H]2CO [2-Dimethylbutyl GIZ, (5R,6R,7S,8S)-5-Hydroxymethyl-2-(3,3-dimethylbutyl)-5,6,7,8-tetrahydroimidazo[1,2-a]pyridine-6,7,8-triol]	–
0.07 nM	approximately 15 fold	CCCCCCCCc1cn2c(n1)[C@H](O)[C@@H](O)[C@H](O)[C@H]2CO [2-Octyl GIZ, (5R,6R,7S,8S)-5-Hydroxymethyl-2-n-octyl-5,6,7,8-tetrahydroimidazo[1,2-a]pyridine-6,7,8-triol]	–
1.1 nM	–	OC[C@@H]1[C@@H](O)[C@H](O)[C@@H](O)c2nc(CCc3ccccc3)cn21 [2-Phenylethyl GIZ, (5R,6R,7S,8S)-5-hydroxymethyl-2-phenethyl-5,6,7,8-tetrahydroimidazo[1,2-a]pyridine-6,7,8-triol]	–
